Common to all, as to format: functional
Assay [1] can be described thus: Growth inhibition of human leukemia cell by NCI-CLS assay.
The next assay relates to NSCLC. Description: Growth inhibition of human NSCLC cell by NCI-CLS assay.
A short description of assay [2]: Growth inhibition of human colon cancer cell by NCI-CLS assay. As to conditions: Cancer cell lines.
Assay [3] can be described thus: Growth inhibition of human CNS cancer cell by NCI-CLS assay. The note with it: Cancer cell lines; for CC50: read-out: LC50 (the source's name).
The nature of assay [4]: Growth inhibition of human melanoma cell by NCI-CLS assay. As to conditions: for CC50: read-out: LC50 (the source's name).
Assay [5] can be described thus: Growth inhibition of human ovarian cancer cell by NCI-CLS assay. As to conditions: Cancer cell lines; for CC50: read-out: LC50 (the source's name).
Assay [6] is described as follows: Growth inhibition of human renal cancer cell by NCI-CLS assay. The note with it: Cancer cell lines; for CC50: read-out: LC50 (the source's name).
Assay [7] can be described thus: Growth inhibition of human prostate cancer cell by NCI-CLS assay. As to conditions: Cancer cell lines; for CC50: read-out: LC50 (the source's name).
Assay [8] can be described thus: Growth inhibition of human breast cancer cell by NCI-CLS assay. As to conditions: Cancer cell lines; for CC50: read-out: LC50 (the source's name).

Counter-ions that a name gives are not always drawn.

With `COc1ccc(OC)c2c1NC(=O)/C2=C/c1cccc(/C=C2/C(=O)Nc3c(OC)ccc(OC)c32)n1`, the 50% growth inhibitory concentration (GI50) in assay [1] was 0.4 µM; with NSCLC, 0.9 µM; in [2], 0.5 µM; in assay [3], 0.7 µM; in assay [4], 0.7 µM; in assay [5], 0.8 µM. In addition, the 50% growth inhibitory concentration (GI50) in assay [6] was found to be 0.7 µM; in [7], 0.5 µM; in assay [8] it was 0.7 µM. In addition, the values for the median lethal concentration (LC50) (in assay [1]; with NSCLC; in [2]) were 64.6 µM, 85.1 µM and 22.4 µM, respectively. Further, the TGI in [1] was 8.7 µM; in the assay on NSCLC, 18.6 µM; in [2], 1.9 µM; in assay [3], 3.6 µM; in assay [4] it was 2.2 µM; in assay [5] it was 11.2 µM. The values for the total growth inhibition concentration (TGI) in assay [6], in [7] and in [8] were 2.5 µM, 3.4 µM and 17.4 µM, respectively. For the same molecule, the CC50 was determined as 21.9 µM in assay [3]; 13.5 µM in assay [4]; 27.5 µM in [5]; 18.2 µM in [6]; 25.1 µM in assay [7]; 60.3 µM in assay [8].

Take `COc1ccc2c(c1)/C(=C\c1ccccc1/C=C1/C(=O)Nc3ccc(OC)cc31)C(=O)N2`: the GI50 came to 5.4 µM in assay [1]; 14.1 µM in the assay on NSCLC; 7.8 µM in assay [2]; 14.1 µM in assay [3]; 13.8 µM in [4]; 14.1 µM in assay [5]. For the same molecule, the GI50 was 21.4 µM in assay [6], 14.4 µM in assay [7] and 7.8 µM in [8]. Moreover, the concentration for total growth inhibition (TGI) was determined as 87.1 µM in the assay on NSCLC; 87.1 µM in assay [2]; 72.4 µM in [3]; 91.2 µM in assay [4]; 79.4 µM in [6]; 58.9 µM in assay [7].

Regarding `O=C1Nc2cccc(Cl)c2/C1=C\c1cccc(/C=C2/C(=O)Nc3cccc(Cl)c32)c1`, the GI50 in assay [1] was 1.3 µM; with NSCLC it was 4.2 µM; in assay [2] it was 2.6 µM; in assay [3] it was 1.7 µM; in assay [4], 3.2 µM; in [5], 2.7 µM. Moreover, the GI50 in assay [6] was determined as 2.3 µM; in assay [7] it was 1.5 µM; in assay [8], 2.4 µM. Further, the LC50 in [1] was 27.5 µM; in the assay on NSCLC it was 42.7 µM; in assay [2], 33.1 µM. For the same molecule, the TGI in assay [1] is 9.8 µM; in the assay with NSCLC, 20.4 µM; in [2], 14.8 µM; in assay [3], 13.5 µM; in assay [4], 16.6 µM; in assay [5], 14.4 µM. The TGI in assay [6] worked out at 9.3 µM; in [7], 16.2 µM; in assay [8], 13.2 µM. The CC50 in [3] amounted to 38.9 µM; in assay [4], 34.7 µM; in assay [5] it was 41.7 µM; in [6], 36.3 µM; in [7], 50.1 µM; in [8] it was 42.7 µM.

For the molecule `O=C1Nc2cccc(F)c2C1=Cc1cccc(C=C2C(=O)Nc3cccc(F)c32)n1`, the concentration for 50% growth inhibition (GI50) was 0.8 µM in assay [1]; 2 µM in the assay with NSCLC; 0.7 µM in [2]; 1.1 µM in assay [3]; 0.9 µM in assay [4]; 1.6 µM in assay [5]. For the same molecule, the values for the GI50 in [6], in [7] and in assay [8] were 1.1 µM, 1.4 µM and 0.8 µM, respectively. Besides, the concentration for total growth inhibition (TGI) in assay [1] is 9.8 µM; in the assay with NSCLC, 10.2 µM; in assay [2], 3.3 µM; in assay [3], 5.7 µM; in assay [4], 2.8 µM; in assay [5], 8.5 µM. Further, the results for the TGI in assay [6], in [7] and in [8] were 3.8 µM, 12.9 µM and 10 µM, respectively.

With `COc1ccc2c(c1)/C(=C\c1cc(C(C)(C)C)cc(/C=C3/C(=O)Nc4ccc(OC)cc43)c1O)C(=O)N2`, the GI50 was found to be 3.9 µM in [1]; 8.7 µM with NSCLC; 6.3 µM in [2]; 4.8 µM in [3]; 4.4 µM in assay [4]; 5.9 µM in [5]. For the same molecule, the GI50 in [6] is 7.2 µM; in assay [7], 4.8 µM; in assay [8], 5.5 µM. Moreover, the TGI in assay [1] turned out to be 43.6 µM; in the assay with NSCLC, 32.4 µM; in [2] it was 19.9 µM; in [3] it was 21.4 µM; in assay [4], 13.2 µM; in assay [5], 25.1 µM. Moreover, the TGI is 22.4 µM in assay [6], 24.5 µM in assay [7] and 31.6 µM in [8]. In addition, the results for the LC50 (with NSCLC; in assay [2]) were 69.2 µM and 53.7 µM, respectively. Also, the CC50 in assay [3] came to 66.1 µM; in assay [4], 39.8 µM; in assay [5], 61.7 µM; in [6] it was 61.7 µM; in [7] it was 72.4 µM; in [8] it was 63.1 µM.

As to `COc1ccc2c(c1)/C(=C\c1cccc(/C=C3/C(=O)Nc4ccc(OC)cc43)c1)C(=O)N2`, the concentration for 50% growth inhibition (GI50) in assay [1] was determined as 1 µM; in the assay on NSCLC, 3 µM; in assay [2] it was 1.7 µM; in assay [3], 1.4 µM; in assay [4], 1.2 µM; in assay [5], 2.1 µM. The GI50 in assay [6] was 2.5 µM; in assay [7], 1.7 µM; in [8], 1.2 µM. In addition, the concentration for total growth inhibition (TGI) worked out at 11.5 µM in [1]; 11 µM in the assay with NSCLC; 7.4 µM in assay [2]; 4.3 µM in assay [3]; 2.9 µM in assay [4]; 6.3 µM in [5]. In addition, the values for the TGI in assay [6], in assay [7] and in assay [8] were 6.2 µM, 4.1 µM and 5 µM, respectively. Further, the LC50 came to 85.1 µM in the assay with NSCLC and 83.2 µM in [2]. Besides, the CC50 was found to be 29.5 µM in [3]; 30.2 µM in assay [4]; 95.5 µM in assay [5]; 79.4 µM in assay [6]; 25.7 µM in assay [7].

Consider `CC[C@]1(O)C[C@H]2CN(CCc3c([nH]c4ccccc34)[C@@](C(=O)OC)(c3cc4c(cc3OC)N(C=O)[C@H]3[C@@](O)(C(=O)OC)[C@H](OC(C)=O)[C@]5(CC)C=CCN6CC[C@]43[C@@H]65)C2)C1` [VINCRISTINE SULFATE], for which the GI50 in assay [1] was 0.1 µM; with NSCLC it was 0.2 µM; in [2], 0.1 µM; in [3] it was 0.1 µM; in [4], 0.2 µM; in assay [5], 0.3 µM. Further, the 50% growth inhibitory concentration (GI50) in assay [6] is 0.3 µM; in [7] it was 0.1 µM; in assay [8] it was 0.3 µM. In addition, the TGI is 15.8 µM in assay [1]; 15.8 µM in the assay with NSCLC; 4 µM in assay [2]; 6.3 µM in assay [3]; 7.9 µM in [4]; 19.9 µM in [5]. Moreover, the TGI came to 19.9 µM in [6], 6.3 µM in [7] and 7.9 µM in assay [8].

As to `COc1ccc2c(c1)/C(=C\c1cc(OC)c(O)c(-c3cc(/C=C4/C(=O)Nc5ccc(OC)cc54)cc(OC)c3O)c1)C(=O)N2`, the GI50 in [1] came to 6.9 µM; in the assay with NSCLC, 21.9 µM; in [2] it was 10.5 µM; in assay [3] it was 6.8 µM; in [4], 10.7 µM; in [5], 15.1 µM. In addition, the GI50 came out at 20.9 µM in assay [6], 10.5 µM in [7] and 13.8 µM in [8]. Besides, the TGI was 89.1 µM in assay [1]; 95.5 µM with NSCLC; 75.9 µM in [2]; 87.1 µM in assay [3]; 93.3 µM in assay [4]; 95.5 µM in [6].

The GI50 is the concentration giving 50% growth inhibition. The low end stands for more potent growth inhibition, the high end for less potent growth inhibition. As a reminder, the LC50 is the concentration lethal to half of the exposed cells or organisms. Read a high LC50 as lower toxicity. The term TGI denotes the concentration giving total growth inhibition.

These data come from ChEMBL document CHEMBL1157784, “Antitumor activity and COMPARE analysis of bis-indole derivatives” (Bioorg Med Chem, 2010).
